Results from ChEMBL document CHEMBL3880418, “Pyripyropene derivative having ACAT2 inhibiting activity and stable to metabolizing enzymes” (2013).

What was measured:
[1] = Half life in Sprague-Dawley rat liver microsomes at 6 ug/ml by HPLC method; format: ADME
[2] = target: T1, Sterol O-acyltransferase 2 (Mus musculus) (UniProt O88908); assay: Ratio of compound IC50 to PRD 043 IC50 for ACAT2 in mouse hepatic microsomal membranes; format: cell membranes; settings: Liver, Microsomal Membrane
T1 sequence (whole entry): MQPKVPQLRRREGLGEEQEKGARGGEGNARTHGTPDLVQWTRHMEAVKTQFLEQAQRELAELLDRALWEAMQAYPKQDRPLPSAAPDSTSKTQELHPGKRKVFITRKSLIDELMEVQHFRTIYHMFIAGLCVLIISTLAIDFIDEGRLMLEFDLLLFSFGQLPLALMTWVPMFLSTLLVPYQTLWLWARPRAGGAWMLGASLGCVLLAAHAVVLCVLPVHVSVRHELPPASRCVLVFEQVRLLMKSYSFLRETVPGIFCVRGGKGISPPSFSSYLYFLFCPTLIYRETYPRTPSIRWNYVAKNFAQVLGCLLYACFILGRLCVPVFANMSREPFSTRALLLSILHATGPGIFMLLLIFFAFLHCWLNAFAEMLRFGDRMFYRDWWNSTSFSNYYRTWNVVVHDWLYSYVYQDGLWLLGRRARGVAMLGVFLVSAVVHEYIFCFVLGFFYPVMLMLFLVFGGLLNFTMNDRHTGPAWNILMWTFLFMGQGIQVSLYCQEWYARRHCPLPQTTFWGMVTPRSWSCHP

| SMILES | half-life at 6 ug/ml [1] [h] | Ratio IC50 [2] |
| --- | --- | --- |
| COc1ccccc1[C@@H]1OC[C@@]2(C)[C@@H]3C[C@H](OC(=O)c4ccc(F)cc4)[C@@]4(C)Oc5cc(-c6cccnc6)oc(=O)c5[C@H](O)[C@@H]4[C@@]3(C)CC[C@@H]2O1 | > 9 | < 20 |
| C[C@@]12CO[C@@H](c3ccccc3)O[C@H]1CC[C@@]1(C)[C@H]2C[C@H](OC(=O)c2ccccc2)[C@@]2(C)Oc3cc(-c4cccnc4)oc(=O)c3[C@H](O)[C@H]12 | > 9 | < 20 |
| Cc1cccc([C@@H]2OC[C@@]3(C)[C@@H]4C[C@H](OC(=O)c5ccc(F)cc5)[C@@]5(C)Oc6cc(-c7cccnc7)oc(=O)c6[C@H](O)[C@@H]5[C@@]4(C)CC[C@@H]3O2)c1 | > 9 | < 20 |
| CC(=O)OCC1(C)[C@@H](OC(C)=O)CC[C@]2(C)[C@H]3[C@@H](O)c4c(cc(-c5cccnc5)oc4=O)O[C@]3(C)[C@@H](OC(=O)c3ccccc3F)C[C@@H]12 (single isomer, unassigned) | < 1 | – |
| Cc1ccc([C@@H]2OC[C@@]3(C)[C@@H]4C[C@H](OC(=O)c5ccc(C#N)cc5)[C@@]5(C)Oc6cc(-c7cccnc7)oc(=O)c6[C@H](O)[C@@H]5[C@@]4(C)CC[C@@H]3O2)cc1 | > 9 | < 20 |
| CC(=O)OC[C@@]1(C)[C@@H]2C[C@H](OC(=O)c3ccc(C#N)cc3)[C@@]3(C)Oc4cc(-c5cccnc5)oc(=O)c4[C@H](O)[C@@H]3[C@@]2(C)CC[C@@H]1OC(=O)C(C)C | > 9 | < 20 |
| C[C@@]12CO[C@@H](c3ccccc3F)O[C@H]1CC[C@@]1(C)[C@H]2C[C@H](OC(=O)c2ccc(F)cc2)[C@@]2(C)Oc3cc(-c4cccnc4)oc(=O)c3[C@H](O)[C@H]12 | > 9 | < 20 |
| CC(=O)OCC1(C)[C@@H](OC(C)=O)CC[C@]2(C)[C@H]3[C@@H](O)c4c(cc(-c5cccnc5)oc4=O)O[C@]3(C)[C@@H](OC(=O)c3ccccc3C)C[C@@H]12 (single isomer, unassigned) | < 1 | – |
| C[C@@]12CO[C@@H](c3ccccc3)O[C@H]1CC[C@@]1(C)[C@H]2C[C@H](OC(=O)C2CCCCC2)[C@@]2(C)Oc3cc(-c4cccnc4)oc(=O)c3[C@H](O)[C@H]12 | > 9 | < 20 |
| CC(=O)OC[C@@]1(C)[C@@H]2C[C@H](OC(=O)c3ccc(C#N)cc3)[C@@]3(C)Oc4cc(-c5cccnc5)oc(=O)c4[C@H](O)[C@@H]3[C@@]2(C)CC[C@@H]1OC(=O)c1ccccc1 | > 9 | < 20 |
| CC(=O)OCC1(C)[C@@H](OC(C)=O)CC[C@]2(C)[C@H]3[C@@H](O)c4c(cc(-c5cccnc5)oc4=O)O[C@]3(C)[C@@H](OC(=O)c3cccc(Br)c3)C[C@@H]12 (single isomer, unassigned) | < 1 | – |
| COc1cccc(C(=O)O[C@H]2C[C@H]3C(C)(COC(C)=O)[C@@H](OC(C)=O)CC[C@]3(C)[C@H]3[C@@H](O)c4c(cc(-c5cccnc5)oc4=O)O[C@]23C)c1 (single isomer, unassigned) | > 9 | < 5 |
| CC(=O)O[C@H]1CC[C@@]2(C)[C@@H](C[C@H](OC(=O)c3ccc(C#N)cc3)[C@@]3(C)Oc4cc(-c5cccnc5)oc(=O)c4[C@H](O)[C@H]23)[C@]1(C)COC(=O)c1ccccc1 | > 9 | < 20 |
| CC(=O)O[C@H]1C[C@H]2[C@]3(C)CO[C@@H](c4ccccc4)O[C@H]3CC[C@]2(C)[C@H]2[C@@H](O)c3c(cc(-c4cccnc4)oc3=O)O[C@]12C | > 9 | < 20 |
| CC(C)C(=O)OC[C@@]1(C)[C@@H]2C[C@H](OC(=O)c3ccc([N+](=O)[O-])cc3)[C@@]3(C)Oc4cc(-c5cccnc5)oc(=O)c4[C@H](O)[C@@H]3[C@@]2(C)CC[C@@H]1OC(=O)C(C)C | > 9 | < 20 |
| CC(=O)O[C@H]1C[C@H]2[C@](C)(COC(=O)C(C)C)[C@@H](OC(=O)C(C)C)CC[C@]2(C)[C@H]2[C@@H](O)c3c(cc(-c4cccnc4)oc3=O)O[C@]12C | > 9 | < 20 |
| CCc1ccc(C(=O)O[C@H]2C[C@H]3C(C)(COC(C)=O)[C@@H](OC(C)=O)CC[C@]3(C)[C@H]3[C@@H](O)c4c(cc(-c5cccnc5)oc4=O)O[C@]23C)cc1 (single isomer, unassigned) | < 1 | – |
| CC(=O)OCC1(C)[C@@H](OC(C)=O)CC[C@]2(C)[C@H]3[C@@H](O)c4c(cc(-c5cccnc5)oc4=O)O[C@]3(C)[C@@H](OC(=O)c3ccc(C)cc3)C[C@@H]12 (single isomer, unassigned) | < 1 | – |

| SMILES | half-life at 6 ug/ml [1] [h] | Ratio IC50 [2] |
| --- | --- | --- |
| CC(=O)O[C@H]1CC[C@]2(C)[C@H]3[C@@H](O)c4c(cc(-c5cccnc5)oc4=O)O[C@]3(C)[C@@H](OC(=O)c3ccc(C#N)cc3)C[C@H]2[C@@]1(C)C(=O)O | > 9 | < 20 |
| CC(=O)O[C@H]1CC[C@@]2(C)[C@@H](C[C@H](OC(C)=O)[C@@]3(C)Oc4cc(-c5cccnc5)oc(=O)c4[C@H](O)[C@H]23)[C@]1(C)COC(=O)c1ccccc1 | > 9 | < 20 |
| CC(C)C(=O)OCC1(C)[C@@H](OC(=O)C(C)C)CC[C@]2(C)[C@H]3[C@@H](O)c4c(cc(-c5cccnc5)oc4=O)O[C@]3(C)[C@@H](OC(=O)c3ccc(C#N)cc3)C[C@@H]12 (single isomer, unassigned) | > 9 | < 1 |
| C[C@]1(COC(=O)c2ccccc2)[C@@H]2C[C@H](OC(=O)c3ccc(C#N)cc3)[C@@]3(C)Oc4cc(-c5cccnc5)oc(=O)c4[C@H](O)[C@@H]3[C@@]2(C)CC[C@@H]1OC(=O)c1ccccc1 | > 9 | < 20 |
| Cc1cccc([C@@H]2OC[C@@]3(C)[C@@H]4C[C@H](OC(=O)c5ccc(C#N)cc5)[C@@]5(C)Oc6cc(-c7cccnc7)oc(=O)c6[C@H](O)[C@@H]5[C@@]4(C)CC[C@@H]3O2)c1 | – | < 20 |
| CC(=O)OCC1(C)[C@@H](OC(C)=O)CC[C@]2(C)[C@H]3[C@@H](O)c4c(cc(-c5cccnc5)oc4=O)O[C@]3(C)[C@@H](OC(=O)C3CCCCC3)C[C@@H]12 (single isomer, unassigned) | < 1 | – |
| C[C@@]12CO[C@@H](c3ccccc3F)O[C@H]1CC[C@@]1(C)[C@H]2C[C@H](OC(=O)c2ccc(C#N)cc2)[C@@]2(C)Oc3cc(-c4cccnc4)oc(=O)c3[C@H](O)[C@H]12 | > 9 | < 20 |
| C[C@@]12CO[C@@H](c3cccc4ccccc34)O[C@H]1CC[C@@]1(C)[C@H]2C[C@H](OC(=O)c2ccc(C#N)cc2)[C@@]2(C)Oc3cc(-c4cccnc4)oc(=O)c3[C@H](O)[C@H]12 | > 9 | < 20 |
| Cc1ccc([C@@H]2OC[C@@]3(C)[C@@H]4C[C@H](OC(=O)c5ccc(F)cc5)[C@@]5(C)Oc6cc(-c7cccnc7)oc(=O)c6[C@H](O)[C@@H]5[C@@]4(C)CC[C@@H]3O2)cc1 | > 9 | < 20 |
| Cc1cccc(C)c1[C@@H]1OC[C@@]2(C)[C@@H]3C[C@H](OC(=O)c4ccc(C#N)cc4)[C@@]4(C)Oc5cc(-c6cccnc6)oc(=O)c5[C@H](O)[C@@H]4[C@@]3(C)CC[C@@H]2O1 | > 9 | < 20 |
| CC(C)C(=O)OC[C@@]1(C)[C@@H]2C[C@H](OC(=O)C3CCCCC3)[C@@]3(C)Oc4cc(-c5cccnc5)oc(=O)c4[C@H](O)[C@@H]3[C@@]2(C)CC[C@@H]1OC(=O)C(C)C | > 9 | < 20 |
| Cc1ccc([C@@H]2OC[C@@]3(C)[C@@H]4C[C@H](OC(=O)c5ccc(F)cc5)[C@@]5(C)Oc6cc(-c7cccnc7)oc(=O)c6[C@H](O)[C@@H]5[C@@]4(C)CC[C@@H]3O2)c(C)c1 | > 9 | < 20 |
| CN(C)c1ccc([C@@H]2OC[C@@]3(C)[C@@H]4C[C@H](OC(=O)c5ccc(C#N)cc5)[C@@]5(C)Oc6cc(-c7cccnc7)oc(=O)c6[C@H](O)[C@@H]5[C@@]4(C)CC[C@@H]3O2)cc1 | > 9 | < 20 |
| COc1ccccc1[C@@H]1OC[C@@]2(C)[C@@H]3C[C@H](OC(=O)c4ccc(C#N)cc4)[C@@]4(C)Oc5cc(-c6cccnc6)oc(=O)c5[C@H](O)[C@@H]4[C@@]3(C)CC[C@@H]2O1 | > 9 | < 20 |
| Cc1ccccc1[C@@H]1OC[C@@]2(C)[C@@H]3C[C@H](OC(=O)c4ccc(F)cc4)[C@@]4(C)Oc5cc(-c6cccnc6)oc(=O)c5[C@H](O)[C@@H]4[C@@]3(C)CC[C@@H]2O1 | > 9 | < 20 |
| COc1ccc(CNC(=O)[C@@]2(C)[C@@H](OC(C)=O)CC[C@]3(C)[C@H]4[C@@H](O)c5c(cc(-c6cccnc6)oc5=O)O[C@]4(C)[C@@H](OC(=O)c4ccc(C#N)cc4)C[C@H]32)c(OC)c1 | > 9 | < 20 |
| COc1ccc(C(OC)O[C@H]2C[C@H]3[C@]4(C)CO[C@@H](c5ccccc5)O[C@H]4CC[C@]3(C)[C@H]3[C@@H](O)c4c(cc(-c5cccnc5)oc4=O)O[C@]23C)cc1 (stereo not given in full) | > 9 | < 20 |
| Cc1ccc([C@@H]2OC[C@@]3(C)[C@@H]4C[C@H](OC(=O)c5ccc(C#N)cc5)[C@@]5(C)Oc6cc(-c7cccnc7)oc(=O)c6[C@H](O)[C@@H]5[C@@]4(C)CC[C@@H]3O2)c(C)c1 | > 9 | < 20 |
